Assay results reported in patent publication US10426850B2, “Collagen mimetic peptides for targeting collagen strands for in vitro and in vivo imaging and therapeutic use” (The Johns Hopkins University, priority 2011, dated 2019).

Tests used:
intact type I collagen = target: T1, intact type I collagen (Rattus norvegicus, UniProt P02454+P02466); assay: Photo-triggered CMP binding assay on intact non-fibrillar collagen; conditions: intact collagens, before and after 37° C. incubation; UV-activated
T1 construct: type I rat tail, BD Science; purchased BD Science; host or cells: rat tail
T1 sequence (P02454 152-1207 limits assumed): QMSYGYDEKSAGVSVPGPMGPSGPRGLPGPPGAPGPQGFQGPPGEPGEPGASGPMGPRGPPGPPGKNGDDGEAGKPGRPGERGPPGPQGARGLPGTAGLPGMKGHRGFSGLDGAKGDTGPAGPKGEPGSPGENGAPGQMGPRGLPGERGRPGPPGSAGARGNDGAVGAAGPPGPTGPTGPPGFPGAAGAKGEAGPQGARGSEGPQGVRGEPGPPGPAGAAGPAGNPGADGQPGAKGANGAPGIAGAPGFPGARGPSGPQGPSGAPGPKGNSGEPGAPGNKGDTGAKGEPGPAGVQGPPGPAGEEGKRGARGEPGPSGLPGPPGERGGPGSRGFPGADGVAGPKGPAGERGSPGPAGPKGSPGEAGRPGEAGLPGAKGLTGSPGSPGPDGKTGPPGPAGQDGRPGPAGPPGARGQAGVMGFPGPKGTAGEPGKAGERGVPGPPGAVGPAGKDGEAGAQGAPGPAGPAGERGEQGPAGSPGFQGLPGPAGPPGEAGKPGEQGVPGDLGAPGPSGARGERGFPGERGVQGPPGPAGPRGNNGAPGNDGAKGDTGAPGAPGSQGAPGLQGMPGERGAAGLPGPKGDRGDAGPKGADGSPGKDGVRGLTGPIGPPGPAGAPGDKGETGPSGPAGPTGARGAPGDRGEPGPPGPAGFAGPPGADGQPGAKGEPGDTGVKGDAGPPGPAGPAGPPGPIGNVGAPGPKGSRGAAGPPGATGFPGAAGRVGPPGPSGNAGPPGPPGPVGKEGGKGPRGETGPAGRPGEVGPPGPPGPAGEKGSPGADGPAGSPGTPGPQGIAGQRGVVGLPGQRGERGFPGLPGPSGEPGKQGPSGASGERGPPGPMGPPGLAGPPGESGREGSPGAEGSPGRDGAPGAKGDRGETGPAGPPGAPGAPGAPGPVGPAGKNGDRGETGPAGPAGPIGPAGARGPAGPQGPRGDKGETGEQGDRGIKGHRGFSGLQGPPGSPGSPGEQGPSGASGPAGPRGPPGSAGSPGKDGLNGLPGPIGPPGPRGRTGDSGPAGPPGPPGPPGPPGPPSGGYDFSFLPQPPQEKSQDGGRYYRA
T1 sequence (P02466 86-1125 limits assumed): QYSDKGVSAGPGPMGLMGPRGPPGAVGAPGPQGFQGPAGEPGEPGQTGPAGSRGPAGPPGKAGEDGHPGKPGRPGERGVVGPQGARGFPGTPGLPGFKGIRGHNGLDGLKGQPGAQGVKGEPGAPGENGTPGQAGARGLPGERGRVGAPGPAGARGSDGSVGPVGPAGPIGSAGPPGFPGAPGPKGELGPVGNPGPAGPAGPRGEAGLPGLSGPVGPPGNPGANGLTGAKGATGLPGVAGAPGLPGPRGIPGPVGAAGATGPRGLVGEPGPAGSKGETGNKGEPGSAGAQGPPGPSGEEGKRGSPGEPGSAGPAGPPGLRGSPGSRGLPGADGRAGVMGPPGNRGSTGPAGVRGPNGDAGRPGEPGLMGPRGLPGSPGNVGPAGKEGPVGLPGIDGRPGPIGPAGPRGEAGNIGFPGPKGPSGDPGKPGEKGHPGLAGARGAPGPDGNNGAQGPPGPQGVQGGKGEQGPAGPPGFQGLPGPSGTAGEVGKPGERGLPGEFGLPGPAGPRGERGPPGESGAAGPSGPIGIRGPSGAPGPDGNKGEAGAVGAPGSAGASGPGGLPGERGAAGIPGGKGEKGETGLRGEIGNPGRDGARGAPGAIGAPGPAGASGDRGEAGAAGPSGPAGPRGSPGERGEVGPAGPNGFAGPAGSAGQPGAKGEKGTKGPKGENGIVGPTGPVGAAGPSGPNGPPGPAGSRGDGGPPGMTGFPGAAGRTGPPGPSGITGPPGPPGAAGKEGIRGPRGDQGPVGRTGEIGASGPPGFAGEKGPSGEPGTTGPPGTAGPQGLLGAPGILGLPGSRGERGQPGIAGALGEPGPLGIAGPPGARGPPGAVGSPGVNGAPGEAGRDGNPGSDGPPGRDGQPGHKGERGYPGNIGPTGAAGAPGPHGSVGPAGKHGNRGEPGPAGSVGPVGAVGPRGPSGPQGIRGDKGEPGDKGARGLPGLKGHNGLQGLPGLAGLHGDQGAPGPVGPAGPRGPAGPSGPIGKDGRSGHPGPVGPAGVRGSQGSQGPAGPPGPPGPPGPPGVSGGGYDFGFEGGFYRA
Experimental: MMP-1 digestion of type I collagen and CMP binding assays. ProMMP-1 (1 μg, EMD Millipore) was activated by p-aminophenylmercuric acetate (1.1 mM) in 132.5 μL of TNC buffer (50 mM Tris-HCl, 0.15 M NaCl, 5 mM CaCl2, 0.02% NaN3, pH 7.5) at 37° C. for 3 hr. Type I collagen (62.6 μg) was subsequently added to the MMP-1 solution and incubated at room temperature for at least 3 days. Digested products were analyzed by SDS-PAGE and circular dichroism spectroscopy (FIG. 12). Wells of nunc black 96-well maxisorp plate were charged with 50 μL of TNC buffer containing 0.5 M glycerol, and 100 μg/mL collagen or MMP-1 cleaved collagen, and incubated at room temperature. The collagen solutions used were either kept at room temperature (22° C.) or incubated at 37° C. for 1 minute just prior to coating. […] Wells were washed extensively with PBSB followed by fluorescence (ex: 489 nm, em: 533 nm) reading with a SpectraMax M-2 microplate reader (Molecular Devices). […] The background fluorescence of empty wells was subtracted from the raw fluorescence data. For estimating the amount of adsorbed protein, un-blocked collagen-coated wells were treated with 100 μM 5-(4,6-dichlorotriazinyl)aminofluorescein (DTAF, 50 μL, in 0.1 M sodium borate buffer) at room temperature for 3 hours, and the fluorescence (ex: 489 nm, em: 533 nm) of the well was measured after washing with 1×PBS. […]

[1] = target: T2, MMP-1 digested type I collagen (Rattus norvegicus, UniProt P02454+P02466); assay: Staining of SDS-PAGE gels using photo-decaged CMP; type: binding; conditions: 6 μM, UV-activation
T2 construct: purchased BD Science (collagen); EMD Millipore (ProMMP-1); host or cells: rat tail; digested in house
T2 sequence (P02454 152-942 limits assumed): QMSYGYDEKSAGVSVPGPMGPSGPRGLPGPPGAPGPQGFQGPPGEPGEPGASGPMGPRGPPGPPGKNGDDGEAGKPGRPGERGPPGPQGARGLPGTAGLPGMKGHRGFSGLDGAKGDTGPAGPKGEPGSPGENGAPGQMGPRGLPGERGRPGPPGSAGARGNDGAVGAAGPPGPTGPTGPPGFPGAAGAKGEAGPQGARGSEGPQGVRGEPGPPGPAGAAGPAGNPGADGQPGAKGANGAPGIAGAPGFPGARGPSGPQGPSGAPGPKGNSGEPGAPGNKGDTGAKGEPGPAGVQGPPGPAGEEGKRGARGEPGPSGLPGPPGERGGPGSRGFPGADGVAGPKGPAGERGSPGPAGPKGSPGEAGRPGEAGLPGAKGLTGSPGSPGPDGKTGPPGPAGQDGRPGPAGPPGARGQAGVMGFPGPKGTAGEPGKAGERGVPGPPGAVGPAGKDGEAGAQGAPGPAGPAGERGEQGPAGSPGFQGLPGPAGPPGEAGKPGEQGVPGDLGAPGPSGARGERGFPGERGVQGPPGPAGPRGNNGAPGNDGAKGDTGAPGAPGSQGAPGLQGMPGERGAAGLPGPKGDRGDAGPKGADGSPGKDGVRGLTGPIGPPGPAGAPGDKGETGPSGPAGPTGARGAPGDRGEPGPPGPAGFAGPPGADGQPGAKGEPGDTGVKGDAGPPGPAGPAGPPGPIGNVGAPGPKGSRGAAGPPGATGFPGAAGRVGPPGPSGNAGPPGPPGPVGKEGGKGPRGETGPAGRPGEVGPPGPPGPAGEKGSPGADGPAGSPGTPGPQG
T2 sequence (P02454 943-1207 limits assumed): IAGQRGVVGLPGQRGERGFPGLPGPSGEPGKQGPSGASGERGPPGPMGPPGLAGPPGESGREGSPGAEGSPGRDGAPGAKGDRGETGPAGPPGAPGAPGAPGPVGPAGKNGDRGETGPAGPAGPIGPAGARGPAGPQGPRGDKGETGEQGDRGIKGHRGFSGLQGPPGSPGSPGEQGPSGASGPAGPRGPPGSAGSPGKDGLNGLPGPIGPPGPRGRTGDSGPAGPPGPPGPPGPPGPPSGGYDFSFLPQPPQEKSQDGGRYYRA
T2 sequence (P02466 86-871 limits assumed): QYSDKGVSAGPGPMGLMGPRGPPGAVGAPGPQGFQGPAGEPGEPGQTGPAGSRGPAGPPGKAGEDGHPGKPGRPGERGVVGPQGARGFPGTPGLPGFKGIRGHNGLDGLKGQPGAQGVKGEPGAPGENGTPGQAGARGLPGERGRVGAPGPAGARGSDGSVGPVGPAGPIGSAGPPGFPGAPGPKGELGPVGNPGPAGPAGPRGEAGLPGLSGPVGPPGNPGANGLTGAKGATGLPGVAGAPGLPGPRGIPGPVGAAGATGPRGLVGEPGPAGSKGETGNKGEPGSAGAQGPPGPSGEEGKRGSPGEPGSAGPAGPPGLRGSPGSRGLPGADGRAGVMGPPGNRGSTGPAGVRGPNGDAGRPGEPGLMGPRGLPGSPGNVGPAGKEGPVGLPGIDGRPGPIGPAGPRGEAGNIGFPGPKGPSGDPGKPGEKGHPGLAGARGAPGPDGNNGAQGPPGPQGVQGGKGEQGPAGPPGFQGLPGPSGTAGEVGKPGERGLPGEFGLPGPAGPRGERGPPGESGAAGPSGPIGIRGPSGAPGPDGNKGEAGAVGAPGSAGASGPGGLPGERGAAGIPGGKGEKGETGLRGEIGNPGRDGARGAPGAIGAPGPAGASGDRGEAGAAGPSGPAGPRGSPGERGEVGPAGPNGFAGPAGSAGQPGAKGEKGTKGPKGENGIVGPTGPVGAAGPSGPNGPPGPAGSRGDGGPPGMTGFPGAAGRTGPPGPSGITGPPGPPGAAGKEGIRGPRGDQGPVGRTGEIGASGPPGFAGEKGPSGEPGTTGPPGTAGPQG
T2 sequence (P02466 872-1125 limits assumed): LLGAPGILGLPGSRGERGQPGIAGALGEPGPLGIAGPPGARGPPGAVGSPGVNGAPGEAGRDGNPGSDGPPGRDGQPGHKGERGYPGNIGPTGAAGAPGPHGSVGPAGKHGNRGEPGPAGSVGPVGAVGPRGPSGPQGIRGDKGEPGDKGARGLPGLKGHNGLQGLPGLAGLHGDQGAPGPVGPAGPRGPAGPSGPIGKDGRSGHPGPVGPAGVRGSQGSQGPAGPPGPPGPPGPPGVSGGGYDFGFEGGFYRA
Experimental: Staining of SDS-PAGE gels using photo-decaged CF(GPO)9 (SEQ ID NO: 10). MMP-1 digested type I collagen (3.5 μg) was separated by SDS-PAGE (4-12% polyacrylamide gel) under non-reducing condition, along with unstained protein ladder (Life technologies, LC5801). After washing, the gel was soaked in 6 μM CF^NB(GPO)9 (SEQ ID NO: 4) (or CF^SG9P9O9 (SEQ ID NO: 5)) in 1×PBS solution, followed by exposure to 365 nm UV light for 15 min, and 2.5 hr of staining. The gel was washed with deionized water and scanned using Typhoon 9410 Imager (GE Healthcare) with 488 nm fluorescence channel. Afterwards, the protein gel was stained by coomassie brilliant blue and imaged by Gel Doc EQ system (BioRad).

fibronectin and laminin = assay: SDS-PAGE staining by heat activated fluorescent CMP, other ECM proteins; type: binding, bovine (fibronectin), murine (laminin); conditions: 6 μM, 2 μg protein per lane
Text: (§1) Acid soluble rat-tail type I collagen, bovine type II collagen, and mouse type IV collagen were purchased from BD Bioscience (San Jose, Calif.). Complement component C1q from human serum, fibronectin from bovine plasma, and laminin from Engelbreth-Holm-Swarm murine sarcoma basement membrane were purchased from Sigma-Aldrich. ProMMP-1, and p-aminophenylmercuric acetate were acquired from EMD millipore. Human umbilical vein endothelial cells (HUVECs) and EGM-2 cell growth media were obtained from Lonza (Walkersville, Md.). Precast NuPAGE® Novex 4-12% Bis-Tris Gel (1.0 mm, 12 well), Novex® Sharp unstained protein standard, and SDS-PAGE running buffer, sample buffer, and other SDS-PAGE reagents were purchased from Life Technologies.
(§2) SDS-PAGE staining and imaging. Proteins were resolved on NuPAGE® Novex 4-12% bis-tris gels under denaturating conditions using an XCell SureLock™ Mini-Cell electrophoresis system (Life Technologies). NuPAGE® MOPS SDS running buffer containing 50 mM MOPS, 50 mM Tris Base, 0.1% SDS, and 1 mM EDTA (pH 7.7) was used. […] The fluorescence intensities of the protein bands were quantified using GE ImageQuant™ TL software. After fluorescence imaging, all gels were further stained with coomassie brilliant blue (CB) G-250 (Bio-Rad) for 2-3 hr followed by washing, and imaging under white light illumination using a Gel Doc EQ system (BioRad).

complement factor C1q = target: T3, complement factor C1q (Homo sapiens, UniProt P02745+P02746+P02747); assay: SDS-PAGE staining of collagen-like protein C1q; type: binding; conditions: 6 μM, heat activated, 2 μg
T3 construct: Complement component C1q from human serum; purchased Sigma-Aldrich; host or cells: human serum
T3 sequence (P02745 23-245): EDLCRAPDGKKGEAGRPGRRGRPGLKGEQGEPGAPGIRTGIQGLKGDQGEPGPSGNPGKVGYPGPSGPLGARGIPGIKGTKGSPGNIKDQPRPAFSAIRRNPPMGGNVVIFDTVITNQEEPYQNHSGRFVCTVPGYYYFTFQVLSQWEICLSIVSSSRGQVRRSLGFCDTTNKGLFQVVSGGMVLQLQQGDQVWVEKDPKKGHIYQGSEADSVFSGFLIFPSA
T3 sequence (P02746 28-253): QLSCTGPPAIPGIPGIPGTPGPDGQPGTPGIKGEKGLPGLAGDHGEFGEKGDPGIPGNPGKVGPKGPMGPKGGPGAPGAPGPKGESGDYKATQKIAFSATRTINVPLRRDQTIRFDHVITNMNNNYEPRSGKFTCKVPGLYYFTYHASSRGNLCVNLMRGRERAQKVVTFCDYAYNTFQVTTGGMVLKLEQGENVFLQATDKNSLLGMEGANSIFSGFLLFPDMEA
T3 sequence (P02747 29-245): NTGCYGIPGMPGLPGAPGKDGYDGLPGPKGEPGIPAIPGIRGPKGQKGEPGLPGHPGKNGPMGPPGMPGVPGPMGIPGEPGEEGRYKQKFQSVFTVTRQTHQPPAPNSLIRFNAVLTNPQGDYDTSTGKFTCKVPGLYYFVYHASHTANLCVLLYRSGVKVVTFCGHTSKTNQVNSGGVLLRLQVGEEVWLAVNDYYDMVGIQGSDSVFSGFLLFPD
Text: as §1, §2

level of CMP binding (intact type I collagen) | Substance | staining of MMP-1 digested collagen bands [1] | staining of protein ladder bands [1] | staining of fibronectin and laminin bands (fibronectin and laminin) | staining of C1q chains (complement factor C1q)
similarly low | CF-GGG-(GPO)4^NBGPO(GPO)4 [CF^NB(GPO)9] | able to stain the MMP-1 digested collagen bands | No other bands from the protein ladder were stained | – | –
– | CF-GGG-(GPO)9 [CF(GPO)9] | – | – | no affinity to fibronectin and laminin | almost as effectively as collagens
